Experimental data published in patent US11338040B2, “Immunomodulatory compounds” (Leidos, Inc., priority 2020, dated 2022).
Entries after “also recorded” stand apart in the source; their conditions may differ. Non-standard residues stand in square brackets, D forms with d. Residues, ends and D or L forms follow the SMILES beside them. Primed or numbered codes have the meaning given here. No end group written: not given here. PEG4′ = PEG linker of 4 PEG units; PEG4 = NCCOCCOCCOCCOCCC(=O)O

Experiments:
[1] = target: T1, interaction between LAG3 and MHC-II (Homo sapiens, UniProt P18627); assay: HTRF (TR-FRET) LAG3/MHC-II binding assay; details: for response in dilution curve (HTRF signal): 10-fold dilutions starting at 100 μM or 10 μM, FIGS. 2A-9B; for effect on HTRF signal: tested at 100 μM, 10 μM, and 1 μM, FIG. 1; for IC50: LAG3:MHCII TR-FRET full dilution curves
T1 construct: purchased Cisbio US Inc
T1 sequence (P18627 23-450 limits assumed): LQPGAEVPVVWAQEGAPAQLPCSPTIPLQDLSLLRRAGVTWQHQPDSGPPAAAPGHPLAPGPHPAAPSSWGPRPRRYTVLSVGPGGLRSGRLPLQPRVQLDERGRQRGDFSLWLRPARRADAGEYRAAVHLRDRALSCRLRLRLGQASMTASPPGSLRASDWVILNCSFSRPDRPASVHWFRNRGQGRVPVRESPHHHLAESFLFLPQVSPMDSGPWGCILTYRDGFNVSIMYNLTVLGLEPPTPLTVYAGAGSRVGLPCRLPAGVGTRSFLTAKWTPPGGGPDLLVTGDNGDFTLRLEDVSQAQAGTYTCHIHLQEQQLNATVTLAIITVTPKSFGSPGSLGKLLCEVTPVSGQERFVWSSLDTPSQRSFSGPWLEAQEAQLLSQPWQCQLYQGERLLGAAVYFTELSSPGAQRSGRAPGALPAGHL
From the text: A Homogeneous Time-resolved Fluorescence (HTRF) LAG3/MHC-II binding assay (Cisbio US Inc.) was used to measure the interaction between MHC-II and LAG3 in the presence of various peptides and peptide conjugates. In this assay, the interaction between Tag1-LAG3 and Tag2-MHC-II is detected by using anti-Tag1-Terbium (HTRF donor) and anti-Tag2-XL665 (HTRF acceptor). When the donor and acceptor antibodies are brought into close proximity due to LAG3 and MHC-II binding, excitation of the donor antibody triggers fluorescent resonance energy transfer (FRET) towards the acceptor antibody, which in turn emits specifically at 665 nm. This specific signal is directly proportional to the extent of LAG3/MHC-II interaction. Thus, an agent that blocks the interaction between LAG3 and MHC-II will cause a reduction in HTRF ratio.
Each of peptide conjugates BT1, BT2, BT3, BT4, BT5, BT6, BT7, BT8, BT9, and peptides LG11 (LAG3-11), LAG3-56 (SEQ ID NO:5), and LAG3-42 (SEQ ID NO:6) was tested at 3 concentrations: 100 μM, 10 μM, and 1 μM. The dashed-lines represent the HTRF ratio readout of a control ovalbumin peptide (OVA, SEQ ID NO:7) (baseline) at the respective concentrations.
peptide conjugates and LG peptides were tested in full dilution curves in the LAG3:MHCII TR-FRET Assay described above to estimate IC50. peptide conjugates were tested starting at 100 μM or 10 μM. LG peptides were tested starting at 100 μM.

PD1 = target: T2, PD1 (Homo sapiens, UniProt Q15116); assay: PD1/PDL1 cell reporter assay (PathHunter, Jurkat PD1/SHP1 EFC cells co-incubated with PDL1-presenting U2OS cells); type: cell-based; details: FIG. 10
T2 construct: expressed in transfected cells; host or cells: Jurkat cells (PD1-EFC and SHP1-EFC) co-cultured with PDL1-presenting U2OS cells
Description: Jurkat cells expressing PD1 and SHP1 proteins, each fused to a fragment of enzyme fragment complementation (EFC) system, were co-incubated with PDL1-presenting U2OS cells. […] Cells in co-culture were incubated at room temperature (RT) for 2 h (PD1 assay). The assay signal was generated using the PathHunter Bioassay Detection kit. Microplates were read following signal generation using a PerkinElmer ENVISION™ instrument for chemiluminescent signal detection. Inhibitory peptides or antibodies added to the culture result in reduction of light signal. The degree of inhibition was calculated using the following formula: Percent inhibition=100%×[1−(mean RLU of test sample−mean RLU of vehicle control)/mean RLU of EC80 control−mean RLU of vehicle control)].
Peptide conjugates BT1-BT11 were tested at three concentrations: 3.6 μM, 10.8 μM, 32.5 μM in triplicate wells. peptide conjugates were dissolved in DMSO and serially diluted in assay buffer. The highest concentration that can be tested in this assay was 32.5 μM peptide conjugate (1% DMSO).
Peptides LD12 (SEQ ID NO:9), LD10 (SEQ ID NO:1), and LD16 (SEQ ID NO:10) were tested at three concentrations: 11 μM, 33 μM, 100 μM in triplicate. LD peptides were dissolved in water and serially diluted in assay buffer. RLUs were measured at the end of the assay, and % Inhibition (% Efficiency) was calculated using the formula above.

[2] = Precipitation on dilution in assay buffer; type: physicochemical; details: 100 μM final in assay buffer
Description: FIG. 1 is a graph reporting the results of a TR-FRET assay testing the ability of peptide conjugates and individual peptides to affect the interaction between LAG3 and MHC-II. * indicates precipitation when diluted in assay buffer at 1 mM (100 μM final).

[3] = peptide conjugates at 3.6 μM, 10.8 μM, 32.5 μM in triplicate
[4] = LD peptides at 11 μM, 33 μM, 100 μM in triplicate

T2 sequence (Q15116 25-288): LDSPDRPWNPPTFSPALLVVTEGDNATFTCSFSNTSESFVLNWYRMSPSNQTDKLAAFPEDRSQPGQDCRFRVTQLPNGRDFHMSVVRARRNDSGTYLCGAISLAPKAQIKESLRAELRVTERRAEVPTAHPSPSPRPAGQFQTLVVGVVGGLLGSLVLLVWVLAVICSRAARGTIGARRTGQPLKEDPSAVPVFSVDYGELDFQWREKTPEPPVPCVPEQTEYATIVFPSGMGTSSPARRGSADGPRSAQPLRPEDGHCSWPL

Row | Molecule | response in dilution curve (HTRF signal) [1] | effect on HTRF signal [1] | inhibition of PD1 activity (percent inhibition of light signal) (PD1; [3]) | further results
1 | H2N-(dS)TGQISTLRVNITAPLSQ^1-PEG4-(dS)TGQISTLRVNITAPLSQ^1-amide (peptide 1 H-[dS]TGQISTLRVNITAPLSQ[PEG4′]; peptide 2 [dS]TGQISTLRVNITAPLSQ-NH2; also: chain 1 C-terminus joined to chain 2 N-terminus via PEG4) [BT9, peptide conjugate of two LD10 peptides (forward, forward) separated by a PEG4 linker] | no real effect; also recorded: no or activity only at 100 μM | behaved in this assay like a LAG3 agonist | reduced the activity of PD1 at one or two of the tested concentrations | 
2 | LD10da: peptide LD10da (SEQ ID NO:8) (STGQISTLRVNITAPLSQ; LD10da peptide) [reference compound] | no response |  |  | 
3 | H2N-(dS)TGQISTLRVNITAPLSQ^1-PEG4-SAPWEPLHWPEDWWQGTGEW^3-amide [BT1] | reduced the HTRF signal at 10 μM | reduced the HTRF signal | did not show inhibition at any of the tested concentrations | precipitation in assay buffer [2]: precipitation occurred at 100 μM
4 | STGQISTLRVNITAPLSQ (LD10 peptide, forward orientation) [positive control peptide] |  |  |  | inhibition of PD1 activity (percent inhibition of light signal) (PD1; [4]): Good dose-responses
5 | H2N-WEGTGQWWDEPWHLPEWPAS^4-PEG4-(dS)TGQISTLRVNITAPLSQ^1-amide [BT3] | agonistic activity at 100 μM and 10 μM |  | did not show inhibition at any of the tested concentrations | 
6 | H2N-(dS)TGQISTLRVNITAPLSQ^1-PEG4-WEGTGQWWDEPWHLPEWPAS^4-amide [BT8] | agonistic activity at 100 μM | two concentrations of BT8 reduced the HTRF signal | did not show inhibition at any of the tested concentrations | 
7 | CC[C@H](C)[C@H](NC(=O)[C@H](CO)NC(=O)[C@@H](NC(=O)[C@H](CC(C)C)NC(=O)[C@H](CCCNC(=N)N)NC(=O)[C@@H](NC(=O)[C@H](CC(N)=O)NC(=O)[C@@H](NC(=O)[C@@H](NC(=O)[C@H](C)NC(=O)[C@@H]1CCCN1C(=O)[C@H](CC(C)C)NC(=O)[C@H](CO)NC(=O)[C@H](CCC(N)=O)NC(C)=O)[C@@H](C)O)[C@@H](C)CC)C(C)C)[C@@H](C)O)C(=O)N[C@@H](CCC(N)=O)C(=O)NCC(=O)N[C@H](C(=O)N[C@H](CO)C(=O)NCCOCCOCCOCCOCCC(=O)N[C@@H](Cc1c[nH]c2ccccc12)C(=O)N[C@@H](CCC(=O)O)C(=O)NCC(=O)N[C@H](C(=O)NCC(=O)N[C@@H](CCC(N)=O)C(=O)N[C@@H](Cc1c[nH]c2ccccc12)C(=O)N[C@@H](Cc1c[nH]c2ccccc12)C(=O)N[C@@H](CC(=O)O)C(=O)N[C@@H](CCC(=O)O)C(=O)N1CCC[C@H]1C(=O)N[C@@H](Cc1c[nH]c2ccccc12)C(=O)N[C@@H](Cc1c[nH]cn1)C(=O)N[C@@H](CC(C)C)C(=O)N1CCC[C@H]1C(=O)N[C@@H](CCC(=O)O)C(=O)N[C@@H](Cc1c[nH]c2ccccc12)C(=O)N1CCC[C@H]1C(=O)N[C@@H](C)C(=O)N[C@@H](CO)C(N)=O)[C@@H](C)O)[C@@H](C)O [BT6] (Ac-QSLPATINVRLTSIQGT[dS][PEG4]WEGTGQWWDEPWHLPEWPAS-NH2) | reduced the HTRF signal | reduced the HTRF signal | did not show inhibition at any of the tested concentrations | IC50 [1]: 146 nM
8 | LG42: peptide LG42 (LAG3-42; SEQ ID NO:6) (DWNFQQWDWKKHNHLDSHVV; LAG3-42 peptide) [reference compound] | no response |  |  | 
9 | Ac-QSLPATINVRLTSIQGT(dS)^2-PEG4-QSLPATINVRLTSIQGT(dS)^2-amide (peptide 1 Ac-QSLPATINVRLTSIQGT[dS][PEG4′]; peptide 2 QSLPATINVRLTSIQGT[dS]-NH2; also: chain 1 C-terminus joined to chain 2 N-terminus via PEG4) [BT11, peptide conjugate of two LD10 peptides (reverse, reverse) separated by a PEG4 linker] | activity at 100 μM |  | reduced the activity of PD1 at one or two of the tested concentrations | response in dilution curve (HTRF signal) ([1]; listed as B11): no or activity only at 100 μM
10 | LD12: negative control peptide LD12 (SEQ ID NO:9) (CRRTSTGQISTARVNITAPLSQ; LD12 peptide) [reference compound] |  |  |  | inhibition of PD1 activity (percent inhibition of light signal) (PD1; [4]): did not show inhibition
11 | LD16: positive control peptide LD16 (SEQ ID NO:10) (TSTGQISTLRVNITAPLSQ; LD16 peptide) [reference compound] |  |  |  | inhibition of PD1 activity (percent inhibition of light signal) (PD1; [4]): Good dose-responses
12 | H2N-(dS)TGQISTLRVNITAPLSQ^1-PEG4-QSLPATINVRLTSIQGT(dS)^2-amide [BT10] | activity at 100 μM |  | reduced the activity of PD1 at one or two of the tested concentrations | response in dilution curve (HTRF signal) ([1]; listed as B10): no or activity only at 100 μM
13 | CC[C@H](C)[C@H](NC(=O)[C@H](CO)NC(=O)[C@@H](NC(=O)[C@H](CC(C)C)NC(=O)[C@H](CCCNC(=N)N)NC(=O)[C@@H](NC(=O)[C@H](CC(N)=O)NC(=O)[C@@H](NC(=O)[C@@H](NC(=O)[C@H](C)NC(=O)[C@@H]1CCCN1C(=O)[C@H](CC(C)C)NC(=O)[C@H](CO)NC(=O)[C@H](CCC(N)=O)NC(C)=O)[C@@H](C)O)[C@@H](C)CC)C(C)C)[C@@H](C)O)C(=O)N[C@@H](CCC(N)=O)C(=O)NCC(=O)N[C@H](C(=O)N[C@H](CO)C(=O)NCCOCCOCCOCCOCCC(=O)N[C@@H](CO)C(=O)N[C@@H](C)C(=O)N1CCC[C@H]1C(=O)N[C@@H](Cc1c[nH]c2ccccc12)C(=O)N[C@@H](CCC(=O)O)C(=O)N1CCC[C@H]1C(=O)N[C@@H](CC(C)C)C(=O)N[C@@H](Cc1c[nH]cn1)C(=O)N[C@@H](Cc1c[nH]c2ccccc12)C(=O)N1CCC[C@H]1C(=O)N[C@@H](CCC(=O)O)C(=O)N[C@@H](CC(=O)O)C(=O)N[C@@H](Cc1c[nH]c2ccccc12)C(=O)N[C@@H](Cc1c[nH]c2ccccc12)C(=O)N[C@@H](CCC(N)=O)C(=O)NCC(=O)N[C@H](C(=O)NCC(=O)N[C@@H](CCC(=O)O)C(=O)N[C@@H](Cc1c[nH]c2ccccc12)C(N)=O)[C@@H](C)O)[C@@H](C)O [BT7] (Ac-QSLPATINVRLTSIQGT[dS][PEG4]SAPWEPLHWPEDWWQGTGEW-NH2) | reduced the HTRF signal | reduced the HTRF signal | reduced the activity of PD1 at one or two of the tested concentrations | IC50 [1]: ~12.8 nM
